According to patent US20040081712A1, “Substance for treatment of non-insulin dependent diabetes mellitus, hypertension and/or the metabolic syndrome” (priority 2001, published 2004):
“Also recorded” adds a separate entry of the source.

Legend:
[1] = system: isolated mouse islets; experiment: insulin secretion from isolated mouse islets; assay type: cell-based; details: for glucose-stimulated insulin secretion: 16.7 mmol/l, 10^−9-10^−3 mol/l; for maximal stimulatory dose: NMRI mouse islets
Experimental: Islet from 6-10 NMRI mice were isolated and incubated in the presence of 16.7 mmol/l and 10^−9-10^−3 mol/l stevioside or 10^−9-10^−3 mol/l steviol. The results of these tests are illustrated in FIGS. 4a and 4b where each column represents mean±SEM from 24 incubations of single islets. Black bars in FIG. 4a indicate that stevioside is present and hatched bars indicate that stevioside is absent. Grey bars in FIG. 4b indicate that steviol is present and hatched bars indicate that steviol is absent. The influence of the maximal stimulatory doses of 10^−3 mol/l stevioside and 10^−6 mol/l steviol was studied in NMRI mouse islets over a range between 0 and 16.7 mmol/l glucose. […] Black bars in FIG. 7a indicate that stevioside is present and hatched bars indicate that stevioside is absent. Grey bars in FIG. 7b indicate that steviol is present and hatched bars indicate that steviol is absent.

[2] = system: rats; experiment: intravenous administration to rats; details: rat, in vivo
[3] = system: Salmonella typhimurium strains; details: cited from earlier work
[4] = another study; cited from earlier work
[5] = system: mice; details: mouse, in vivo; cited from earlier work
[6] = system: rats; details: rat, in vivo; cited from earlier work
[7] = system: hamsters; details: cited from earlier work
[8] = system: GK rats; experiment: i.v. glucose tolerance test in GK rats; assay type: in vivo, rat
Experimental: In the following examples, the type II diabetic Goto-Kakizaki (GK) rats originated from Takeda Chemical Ind., Tokyo, Japan and were bred locally.
As examples of the effects of a compound including the chemical formulas II, stevioside was tested on normal Wistar rats and on GK rats. 2.0 g glucose/kg body weight and 0.2 g stevioside/kg body weight were dissolved in 0.9% saline and infused intravenously. The plasma glucose and insulin levels were measured over a period of 2 hours.
The results are shown in FIGS. 2a, 2b, 3a and 3b, were the O-O series (n=6 for Wistar and n=14 for GK) illustrate glucose infused alone and the {circle over (2)}-{circle over (2)} series (n=6 for Wistar and n=12 for GK) illustrate the combined glucose and stevioside infusion. Data are given as mean±SEM.
During a glucose tolerance test, an intravenous bolus of stevioside of 0.2 g/kg body weight was injected in GK rats (the {circle over (2)}-{circle over (2)} serie (n=6)). GK rats receiving 0.9% saline intravenously served as controls (the O-O serie (n=6)). Glucose 2.0 g/kg body weight was administered as a bolus at timepoint 0 min. The plasma glucagon responses are shown as mean±SEM in FIGS. 5a (control) and 5b (GK). The plasma glucagon was suppressed in the stevioside treated GK rat.

[9] = system: GK rats; experiment: blood pressure during 6 weeks treatment of GK rats; assay type: in vivo, rat; details: 0.025 g/kg body weight/24 h in drinking water
Experimental: GK rats were treated with stevioside 0.025 g/kg body weight/24 h for 6 weeks. Stevioside was administered in the drinking water. GK rats receiving drinking water with 0.111 g D-glucose/kg body weight/24 h served as controls. Systolic (FIG. 6a, control: O-O series, stevioside-treated: {circle over (2)}-{circle over (2)} series) and diastolic (FIG. 6b, control: O-O series, stevioside-treated: {circle over (2)}-{circle over (2)} series) blood pressures were measured on the tail.

[10] = system: type II diabetic patients; experiment: acute paired cross-over test meal study; assay type: in vivo, human; details: 1 g orally with standard meal
Source text: Twelve type II diabetic patients (4 female/8 males) with a mean age of 65.8±1.6 years, a diabetes duration of 6.0±1.3 years, a mean body mass index of 28.5±1.0, and a mean glycated hemoglobin HbAlc of 7.4+0.4 percent were included in the study. The experiment was an acute, paired, cross-over study in which two test meals were served during the experiments (A: Standard meal supplemented with 1 g of stevioside given orally; B: Standard meal given together with 1 g of gelatine (placebo) given orally. The total energy content of the test meals was 1725 kJ (protein 16 E %, fat 30 E %, carbohydrate 54 E %). Blood samples were drawn from an antecubital vein 30 minutes before and 240 minutes after ingestion of the test meal. The arterial blood pressure was continuously monitored during the experiment. Students paired t-test was used for comparing the effects of stevioside with placebo on the parameters measured. Data are given as mean±SEM.

[11] = system: Goto-Kakizaki rats; experiment: four-week test diets with glucose tolerance test in Goto-Kakizaki rats; assay type: in vivo, rat
Experimental: In the following example is the term “Soy” defined as a composition comprising 65 weight-% soy protein, at least 0.2 weight-% isoflavones and 18 weight-% soy dietary fibres, mostly cotyledon fibres. “Altromin” is a standard carbohydrate rich laboratory animal diet.” Four test diets, A, B, C and D as defined below, were administered for four weeks to four groups of adult rats. A: Altromin; n=12 (Alt). B: Altromin supplemented with stevioside; n=12; (Alt+Ste). C: 80% Soy plus 20% Altromin; n=12; (Soy). D: 80% Soy plus 20% Altromin plus stevioside; n=12; (Soy+Ste) Each experimental group consisted of twelve female Goto-Kakizaki with an age of 9 weeks. The rats received the stevioside (0.025 g/kg body weight/day) with the drinking water. By the end of the third experimental week intra-arterial catheters were implanted into the carotid artery thereby enabling blood sampling during a 240 minutes glucose-tolerance test which was carried out by the end of the experiment at week 4. Blood samples were drawn after a bolus infusion of 2.0 g D-glucose/kg body weight. Plasma concentrations of glucose, insulin, and glucagon were measured during the glucose tolerance test. Immediately before the glucose tolerance test fasting levels of triglycerides and cholesterol were determined. Concomitantly, the systolic blood pressure was measured using a tail cuff. (Plasma glucose was measured using MPR 3, 166 391, Glucose/GOD-PAP Method from Boehringer Mannheim) (Plasma insulin was measured using Sensitive Rat Insulin RIA, Cat # SRI-13K from Linco) (Plasma glucagon was measured using Glucagon RIA, Cat # GL-32K from Linco) (Blood pressure was measured using TSE Non-Invasive Blood Pressure Monitoring System from Technical Scientific Equipment GmbH) (Plasma cholesterol was measured GOD-PAP from Roche and triglycerides was measured using GHOD-PAP from Roche)

[12] = stevioside infusion at normal blood glucose; assay type: in vivo; details: bolus or constant intravenous infusion
[13] = rats; cited from earlier work
[14] = isolated perfused rat liver; cited from earlier work
[15] = system: F344 rats; details: cited from earlier work
[16] = system: hamsters; details: doses as high as 2.5 g/kg body weight/day; cited from earlier work
[17] = system: isolated normal pancreatic rat islets; details: 7 mmol/l D-glucose, 1,0 mmol/l; cited from earlier work
[18] = system: spontaneously hypertensive rats; details: intravenously 200 mg/kg; cited from earlier work

C=C1C[C@@]23CC[C@H]4[C@@](C)(CCC[C@@]4(C)C(=O)O)[C@@H]2CC[C@]1(O)C3 [steviol]
stimulation of insulin secretion, steviol compared with stevioside [1]: stimulate the insulin secretion to a greater extent | glucose-stimulated insulin secretion [1]: capable of potentiating glucose-stimulated insulin secretion | maximal stimulatory dose [1]: 10^−6 mol/l | effect when administered intravenously to rats [2]: anti-hyperglycemic, glucagonostatic and insulinotropic effect | mutagenic effect [3]: no mutagenic effect | mutagenicity [4]: dose-related positive responses | LD50 [5]: higher than 15 g/kg body weight | LD50 [6]: higher than 15 g/kg body weight | LD50 ([7]; hamster, in vivo): 5-6 g/kg body weight | pathology accompanying lethal dose ([7]; hamsters): degeneration of the proximal tubular cells

C=C1C[C@@]23CC[C@H]4[C@@](C)(CCC[C@@]4(C)C(=O)O[C@@H]4O[C@H](CO)[C@@H](O)[C@H](O)[C@H]4O)[C@@H]2CC[C@]1(O[C@@H]1O[C@H](CO)[C@@H](O)[C@H](O)[C@H]1O[C@@H]1O[C@H](CO)[C@@H](O)[C@H](O)[C@H]1O)C3 [stevioside]
time after which significant decrease of plasma glucose was observed ([8]; 2.0 g glucose/kg + 0.2 g stevioside/kg i.v.): 30 min | plasma glucose response ([8]; 2.0 g glucose/kg + 0.2 g stevioside/kg i.v., 2 hours): inhibited blood glucose responses; also recorded: diminished glucose response | plasma insulin response ([8]; 2.0 g glucose/kg + 0.2 g stevioside/kg i.v., compared to the Wistar rat): pronounced increase in the insulin response | plasma glucagon response ([8]; i.v. bolus 0.2 g/kg, glucose 2.0 g/kg): suppressed | glucose-stimulated insulin secretion [1]: capable of potentiating glucose-stimulated insulin secretion | maximal stimulatory dose [1]: 10^−3 mol/l | time of treatment after which decrease in blood pressure was detectable [9]: 2 weeks | decrease in the blood pressure ([9]; 6 weeks, systolic and diastolic, tail): 10-15% | absolute IAUC postprandial blood glucose [10]: 522±64 mmol/l x 240 min | insulin response (IAUC) [10]: the difference did not reach statistical significance | postprandial glucagon levels [10]: 281±33 | reduction of postprandial blood glucose response compared to placebo [10]: 18±5% | area under the plasma-glucagon response curve, in words ([11]; both Altromin and soy groups): significantly reduced | area under the glucose response curve, in words ([11]; glucose tolerance test): reduced the incremental area (IAUC) under the glucose response curve | first phase insulin response, in words ([11]; glucose tolerance test): significantly improved the first phase insulin responses | insulin response curve 0 to 240 minutes, in words ([11]; glucose tolerance test): did not alter the insulin responses | fasting triglyceride levels, in words ([11]; rat, in vivo): significant suppression of the fasting triglyceride levels | suppression of the systolic blood pressure (Δ) ([11]; stevioside in combination with Altromin): −28 mmHg | suppression of the systolic blood pressure (Δ) ([11]; stevioside in combination with soy): −21 mmHg | hypoglycemia [12]: did not cause any hypoglycemia | effect when administered intravenously to rats [2]: anti-hyperglycemic, glucagonostatic and insulinotropic effect | route of excretion [13]: excreted by the urine | metabolism [14]: not metabolised | mutagenic effect [3]: no mutagenic effect | mutagenicity [4]: not mutagenic | carcinogenicity [15]: not carcinogenic | effect on growth or reproduction [16]: no effect on growth or reproduction | insulin output [17]: significant increase in insulin output | fall in the systolic blood pressure [18]: only small
